The values below come from patent US6664442B2, “Selecting compounds to reduce inflammation associated with Alzheimer's disease” (Elan Pharmaceuticals, Inc., priority 2000, dated 2003).

What all share (assay type): in vivo, mouse
The test system of one assay is Igk. Put plainly: mRNA expression of Igk in PDAPP mice immunized with Aβ1-42 or a fragment, quantitative RT-PCR. The settings on record: tissue not given. The source says:
(§1) RNA was isolated from brain tissues using the S.N.A.P.™ Total RNA Isolation Kit (Invitrogen, Carlsbad, Calif.) according to manufacturer's instructions, with the following modifications: the tissue was homogenized for 20 seconds using a rotor-stator homogenizer (Fisher Scientific). The DNA digestion step was repeated a second time following isopropanol precipitation.
(§2) Quantitative PCR assays were run on a Perkin Elmer 7700 Sequencer using methods and materials provided by Perkin Elmer (Applied Biosystems Division, Foster City, Calif.). Primers and fluorescent probes were obtained from Perkin Elmer; the sequences and concentrations of primers and probes used for the various assays are listed in Table 1 below. PCR reactions were set up using approximately 300 nM concentrations of each of the forward and reverse primers, 100 nM probe and RNA extracted from the tissue of interest (20 ng). Each reaction also included a standard RNA for comparison. Data were normalized to total RNA or to GAPDH. Standard curves were run using standard RNA prepared from the appropriate tissue (e.g., brain total RNA). Sample results were normalized to the amount of RNA measured by OD and or control message (e.g., GAPDH).
(§3) Thus, the efficacy of Aβ-treatment can be assessed by comparing the mRNA expression of such markers.

In the next assay the test system is IFN-γ. The assay is described as follows: mRNA expression of IFN-γ in PDAPP mice immunized with Aβ1-42 or a fragment, quantitative RT-PCR. The settings on record: tissue not given.
From the text: as §1, §2, §3

The next assay relates to CD4. The assay is described as follows: mRNA expression of CD4 in PDAPP mice immunized with Aβ1-42 or a fragment, quantitative RT-PCR. The conditions noted are these: tissue not given.
From the text: as §1, §2, §3

The next assay concerns MCP-1. The assay is described as follows: mRNA expression of MCP-1 in PDAPP mice immunized with Aβ1-42 or a fragment, quantitative RT-PCR. The settings on record: tissue not given.
From the text: as §1, §2, §3

The next assay concerns IgG-1. Put plainly: mRNA expression of IgG-1 in PDAPP mice immunized with Aβ1-42 or a fragment, quantitative RT-PCR. The settings on record: Fr cortex.
From the text: as §1, §2, §3

With “Aβ1-5: fragment of Aβ1-42 used to immunize PDAPP mice (DAEFR; Amyloid-beta protein 42; UniProt P05067 672-676, looked up, fragment)”, the “Igk mRNA, ratio of Aβ-treated mice to non-Aβ-treated mice” value in the assay on Igk was found to be 2.10X. For the same substance, the “IFN-γ mRNA, ratio of Aβ-treated mice to non-Aβ-treated mice” value in the assay with IFN-γ was “.8X”. Moreover, the “CD4 mRNA, ratio of Aβ-treated mice to non-Aβ-treated mice” value in the assay with CD4 is on record as 0.99X. In addition, the “MCP-1 mRNA, ratio of Aβ-treated mice to non-Aβ-treated mice” value in the assay on MCP-1 was found to be 0.75X.
With “Aβ1-42: amyloid β-peptide 1-42 used to immunize PDAPP mice”, the “IgG-1 mRNA, ratio of Aβ-treated mice to non-Aβ-treated mice” value with IgG-1 turned out to be 300X.
